Measurements from patent publication US9782483B2, “Sigma ligands for the prevention and/or treatment of emesis induced by chemotherapy or radiotherapy” (Laboratories Del Dr. Esteve, S.A., priority 2010, dated 2017).

How the values were obtained:
[1] = tested on: ferret (Mustela putorius furo); test: Antiemetic properties against cisplatin-induced emesis in the conscious, unrestrained ferret (telemetry); format: in vivo; details: cisplatin 5 mg/kg i.p., 80 mg/kg i.p., multiple dose regimen (9 treatments)
Method: The antiemetic properties of compound 63 were assessed in combination with intraperitoneal administration of the chemotherapeutic agent cisplatin in the conscious, unrestrained ferret (Mustela putorius furo).
At least 12 days before their first treatment, ferrets were surgically implanted with telemetry devices. Individual body weights were recorded before treatment, at the time of telemetry device implantation, one day before the initiation of treatment and after completion of the treatment session, at the time of euthanasia, for each animal respectively.
The animals were treated according to the following schedule: […]
Body temperature, abdominal pressure and activity of the abdominal muscle (EMG) were recorded in treated animals, on day 0 and day 7, respectively, starting approximately 1 hour before the first administration of the vehicle and the test item and for at least 72 hours following the first administration of the vehicle and the test item. […]
2.7 Administration of Emetogenic Item • Route: Intraperitoneal. • Method of administration: Bolus injection using a sterile syringe and needle introduced intraperitoneally into the pelvic area. • Frequency: One administration for each animal, on day 0 or 7, one hour after the first treatment with the test item • Volume of administration: 5 mL/kg. • Individual dose volumes were calculated using the latest recorded body weight. […]

[2] = during Patient-Controlled Analgesia Therapy; Tramèr et al. 1999; cited from earlier work

SMILES | number of emetic events during the delayed phase ([1]; delayed phase 18 to 72 hours, vs vehicle) | maximum total number of emetic events (EE) ([1]; delayed phase, between 62 and 63 hours) | antinausea effect [2]
Cc1cc(OCCN2CCOCC2)nn1-c1ccc2ccccc2c1 [Compound 63, 4-{2-[5-Methyl-1-(naphthalen-2-yl)-1H-pyrazol-3-yloxy]ethyl}morpholine] | markedly decreased | 39 | –
Cc1nccn1CC1CCc2c(c3ccccc3n2C)C1=O (stereo not shown) [ondasetron] | – | – | no evidence of any antinausea effect
CN1[C@@H]2CC[C@H]1C[C@@H](OC(=O)c1c[nH]c3ccccc13)C2 [tropisetron] | – | – | no evidence of any antinausea effect
